Reference: the supplement of paper PMC10627819

Assays:
S. aureus Newman [1] = assay: Bliss interaction score (quartile over a dose matrix) (fitness difference); higher = more antagonism (negative = synergy)
Procedure, shortened: (§1)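 Growth was read as OD595 when cultures entered stationary phase, and each value was divided by the plate's robust no-drug mean and capped at 1. This normalised ratio is the fitness value, and fitness for each single drug came from the combination data. The Bliss score subtracts the expected fitness, taken as the product, from the observed fitness and is given as quartiles across technical, biological and donor/recipient replicates.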

S. pneumoniae D39V = assay: as above
Procedure, shortened: as §1

S. aureus DSM 20231 [2] = assay: as above
Procedure, shortened: as §1

B. subtilis 168 = assay: as above
Procedure, shortened: as §1

S. aureus Newman [3] = assay: fitness (endpoint OD595 vs no drug) (fraction); higher = more growth
Procedure, shortened: (§2)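 Growth medium was TSB, LB Lennox or CY, and plates were kept at 37 °C. Inoculation was at OD595 0.01 in 384-well plates, at 30 µl per well or 55 µl for S. pneumoniae. OD595 was monitored every 30 min for 14 h and background-subtracted using the first reading. Fitness is the optical density on entering stationary phase divided by the robust mean of no-drug controls, with values capped at 1.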

S. aureus DSM 20231 [4] = assay: as above
Procedure, shortened: as §2
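Throughout, for Bliss interaction score (quartile over a dose matrix): first quartile when negative (synergy) and third quartile when positive (antagonism).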
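Throughout, for fitness (endpoint OD595 vs no drug): OD595 on entry to stationary phase over no-drug wells; at most 1.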

O=C(N[C@H](CO)[C@H](O)c1ccc([N+](=O)[O-])cc1)C(Cl)Cl [Chloramphenicol] + CN[C@@H]1[C@H](O)[C@H](NC)[C@H]2O[C@@]3(O)C(=O)C[C@@H](C)O[C@H]3O[C@@H]2[C@H]1O [Spectinomycin]
Conditions | Bliss interaction score
B. subtilis 168 | -0.0556
S. aureus DSM 20231 [2] | -0.0533
S. aureus Newman [1] | -0.107
S. pneumoniae D39V | -0.0595

fitness
Conditions | first compound 0.75 µg/mL | first compound 1.5 µg/mL | first compound 3 µg/mL
S. aureus DSM 20231 [4], partner 4 µg/mL | 0.556 | 0.539 | 0.12
S. aureus DSM 20231 [4], partner 8 µg/mL | 0.665 | 0.511 | 0.117
S. aureus DSM 20231 [4], partner 16 µg/mL | 0.657 | 0.376 | 0.15
S. aureus Newman [3], partner 4 µg/mL | 0.725 | 0.441 | 0.207
S. aureus Newman [3], partner 8 µg/mL | 0.722 | 0.42 | 0.172
S. aureus Newman [3], partner 16 µg/mL | – | – | 0.0732

fitness, one replicate
Conditions | first compound 0.75 µg/mL | first compound 1.5 µg/mL | first compound 3 µg/mL
S. aureus DSM 20231 [4], partner 32 µg/mL | 0.493 | 0.259 | 0.0743
S. aureus DSM 20231 [4], partner 64 µg/mL | 0.0559 | 0.0436 | 0.0235
S. aureus Newman [3], partner 32 µg/mL | 0.155 | 0.0442 | 0.0229
S. aureus Newman [3], partner 64 µg/mL | 0.0289 | 0.0929 | 0.0827

O=C(N[C@H](CO)[C@H](O)c1ccc([N+](=O)[O-])cc1)C(Cl)Cl [Chloramphenicol] + CN[C@H](CC(C)C)C(=O)N[C@H]1C(=O)N[C@@H](CC(N)=O)C(=O)N[C@H]2C(=O)N[C@H]3C(=O)N[C@H](C(=O)N[C@H](C(=O)O)c4cc(O)cc(O)c4-c4cc3ccc4O)[C@H](O)c3ccc(c(Cl)c3)Oc3cc2cc(c3O[C@@H]2O[C@H](CO)[C@@H](O)[C@H](O)[C@H]2O[C@H]2C[C@](C)(N)[C@H](O)[C@H](C)O2)Oc2ccc(cc2Cl)[C@H]1O [Vancomycin]
Conditions | Bliss interaction score
B. subtilis 168 | -0.0535
S. aureus DSM 20231 [2] | 0.07
S. aureus Newman [1] | 0.079
S. pneumoniae D39V | -0.0896

fitness
Conditions | first compound 0.75 µg/mL | first compound 1.5 µg/mL | first compound 3 µg/mL
S. aureus DSM 20231 [4], partner 0.1875 µg/mL | 0.669 | 0.608 | 0.165
S. aureus DSM 20231 [4], partner 0.375 µg/mL | 0.7 | 0.654 | 0.142
S. aureus DSM 20231 [4], partner 0.75 µg/mL | – | 0.652 | 0.15
S. aureus Newman [3], partner 0.1875 µg/mL | 0.874 | – | –
S. aureus Newman [3], partner 0.375 µg/mL | 0.877 | 0.607 | –
S. aureus Newman [3], partner 0.75 µg/mL | 0.836 | 0.634 | 0.23

O=C(N[C@H](CO)[C@H](O)c1ccc([N+](=O)[O-])cc1)C(Cl)Cl [Chloramphenicol] + COc1c(N2C[C@@H]3CCCN[C@@H]3C2)c(F)cc2c(=O)c(C(=O)O)cn(C3CC3)c12 [Moxifloxacin]
Conditions | Bliss interaction score
B. subtilis 168 | 0.0443
S. aureus DSM 20231 [2] | 0.148
S. aureus Newman [1] | 0.16
S. pneumoniae D39V | 0.0681

fitness
Conditions | first compound 0.75 µg/mL | first compound 1.5 µg/mL | first compound 3 µg/mL
S. aureus DSM 20231 [4], partner 0.0075 µg/mL | 0.578 | 0.633 | –
S. aureus DSM 20231 [4], partner 0.015 µg/mL | 0.714 | 0.636 | 0.113
S. aureus DSM 20231 [4], partner 0.03 µg/mL | 0.613 | 0.562 | 0.0861
S. aureus Newman [3], partner 0.0075 µg/mL | 0.738 | 0.566 | 0.214
S. aureus Newman [3], partner 0.015 µg/mL | 0.647 | 0.487 | 0.166
S. aureus Newman [3], partner 0.03 µg/mL | – | 0.364 | –

fitness, S. aureus DSM 20231 [4], one replicate
Conditions | first compound 0.75 µg/mL | first compound 1.5 µg/mL | first compound 3 µg/mL
partner 0.06 µg/mL | 0.67 | 0.635 | 0.0943
partner 0.12 µg/mL | 0.591 | 0.58 | 0.118

O=C(N[C@H](CO)[C@H](O)c1ccc([N+](=O)[O-])cc1)C(Cl)Cl [Chloramphenicol] + COc1ccc(C[C@H](N)C(=O)N[C@H]2[C@@H](O)[C@H](n3cnc4c(N(C)C)ncnc43)O[C@@H]2CO)cc1 [Puromycin]
Conditions | Bliss interaction score
B. subtilis 168 | -0.0629
S. aureus DSM 20231 [2] | 0.0724
S. aureus Newman [1] | -0.111
S. pneumoniae D39V | -0.0967

fitness
Conditions | first compound 0.75 µg/mL | first compound 1.5 µg/mL | first compound 3 µg/mL
S. aureus DSM 20231 [4], partner 0.39 µg/mL | 0.764 | – | 0.11
S. aureus DSM 20231 [4], partner 0.78 µg/mL | 0.759 | 0.585 | 0.0684
S. aureus DSM 20231 [4], partner 1.56 µg/mL | 0.782 | 0.455 | –
S. aureus Newman [3], partner 0.39 µg/mL | 0.764 | 0.502 | 0.145
S. aureus Newman [3], partner 0.78 µg/mL | 0.777 | 0.501 | 0.121
S. aureus Newman [3], partner 1.56 µg/mL | 0.807 | 0.501 | –

fitness, S. aureus DSM 20231 [4], one replicate
Conditions | first compound 0.75 µg/mL | first compound 1.5 µg/mL | first compound 3 µg/mL
partner 3.12 µg/mL | 0.771 | 0.231 | 0.0598
partner 6.24 µg/mL | 0.387 | – | 0.0594

O=C(N[C@H](CO)[C@H](O)c1ccc([N+](=O)[O-])cc1)C(Cl)Cl [Chloramphenicol] + C[C@@H]1O[C@@H]1P(=O)(O)O [Fosfomycin]
Conditions | Bliss interaction score
B. subtilis 168 | 0.129
S. aureus DSM 20231 [2] | 0.0517
S. aureus Newman [1] | -0.108
S. pneumoniae D39V | 0.0635

fitness
Conditions | first compound 0.75 µg/mL | first compound 1.5 µg/mL | first compound 3 µg/mL
S. aureus DSM 20231 [4], partner 0.781 µg/mL | 0.633 | 0.473 | 0.116
S. aureus DSM 20231 [4], partner 1.562 µg/mL | 0.558 | 0.402 | 0.0874
S. aureus DSM 20231 [4], partner 3.124 µg/mL | 0.436 | 0.265 | 0.0652
S. aureus Newman [3], partner 0.781 µg/mL | 0.491 | 0.394 | 0.117
S. aureus Newman [3], partner 1.562 µg/mL | 0.452 | 0.272 | 0.0456
S. aureus Newman [3], partner 3.124 µg/mL | 0.117 | 0.0322 | 0.0343
